Like-named read-outs stand apart in the source and are kept apart here.
Experiments:
[1] = Open-label clinical trial: plasma hormone pharmacokinetics after buccal LINGUET tablet, single dose and two weeks twice daily; assay type: in vivo, post-menopausal women; conditions: for absorption from the LINGUET tablet: achieved concentrations found in normal young menstruating women
Method: The trial was conducted with approval of an ethics committee within the hospital.
The excipients in the LINGUET tablets consisted of silica gel, magnesium stearate, acacia, stevia and polyethylene glycol with a wildberry flavour. The LINGUET tablets employed in this trial were formulated in a single batch for the study using the process according to the invention as described in example 2 above. The LINGUET tablets were provided by Richard Stenlake Compounding Pharmacist (Bondi Junction, Australia).
The study was an open-label investigation in six post-menopausal women. Before entry into the trial, subjects gave informed consent, and underwent medical and biochemical screening. Subjects were in general good health, and at least one year post-menopausal.
Subjects discontinued their prescribed HRT therapy as well as any herbal or alternative medicines not less than three days prior to the first study day. Subjects presented to the Clinical Trials Centre on the morning of each study day after an overnight fast. An indwelling cannula was inserted into a forearm vein and a baseline blood specimen collected.
On the first day, a half-LINGUET tablet was placed in the buccal cavity (between the cheek and the gum) and allowed to dissolve. Subjects were instructed not to swallow the formulation. […] Subjects rinsed their mouths with water at 45 min. Blood samples were collected via the cannula at timed intervals over 24 h. Subjects were discharged, but continued to take half a LINGUET tablet, twice daily, for the following two weeks. Subjects then re-presented to the Clinical Trials Centre where the morning dose was taken and further blood samples were collected at timed intervals over the dosage interval of 12 h.
Blood samples were schedule for collection following the single dose at the following times:
Pre-dose (0), 0.25, 0.5, 0.75, 1.0, 1.5, 2.0, 3.0, 4.0, 6.0, 8.0, 12.0, 16.0, […] and 24.0 h following the single dose, and at pre-dose (0), 0.25. 0.5, 0.75, 1.0, 2.0, 2.5, 3.0, 4.0, 6.0, 8.0, 10.0 and 12 h after the two-week dosing interval (steady-state). Actual times were recorded, and these were used for the pharmacokinetic calculations.
Plasma concentrations of hormones were determined using routine validated, radioimmunoassay techniques in the hospital laboratory (Sydpath, St Vincent's Hospital, Sydney). The laboratory is an accredited pathology provider that participates in national quality assurance programmes for hormonal analysis.
DHEA was monitored as the sulphate metabolite (DHEAS), not as the administered hormone.

[2] = background statement, cited from earlier work; for absorbed fraction of the ingested dose: oral
[3] = Hormone concentrations in saliva after buccal LINGUET tablet (radioimmunoassay); assay type: in vivo, post-menopausal women; conditions: elevation maintained over the following 8-12 hours
Method: Saliva was collected according to the standardized directions provided by the laboratory, Australian Reference Laboratories (Melbourne), and stored frozen (−20° C.) prior to shipping for hormonal analysis. In brief, subjects rinsed their mouths thoroughly with water and waited 5-10 min before swallowing any saliva in the mouth. Subjects then expressed saliva directly into the collection tubes.
Saliva samples were obtained for single dose estimation at the following times: pre-dose (0), and 1.0, 4.0, 8.0, 12.0, 16.0 and 24 h after dosing. For steady-state analysis, saliva was collected at pre-dose (0), and 1.0, 4.0, 8.0 and 12.0 h after LINGUET tablet administration.
Hormone concentrations in saliva were conducted by the […] (Melbourne) using validated, commercial radioimmunoassays. This laboratory is similarly an accredited pathology provider.

[4] = plasma, single and multiple dosing

C[C@]12CC[C@H](OS(=O)(=O)O)CC1=CC[C@@H]1[C@@H]2CC[C@]2(C)C(=O)CC[C@@H]12 [DHEA-sulphate, dehydroepiandrosterone-sulphate]
Tmax Day 1 ([1]; plasma, after the first dose (half LINGUET tablet, buccal)): 6.0 h | Cmax ([1]; plasma, after the first dose (half LINGUET tablet, buccal), read-out: Cmax Day 1): 2.2 ± 1.1 nM | Trough concentration at steady-state ([1]; plasma, after two weeks of twice daily half-tablet, six women, mean ± spread): 2.56 ± 1.99 nmol/L | Tmax Steady-state ([1]; plasma, after two weeks of twice daily treatment): 1.5 h | Cmax ([1]; plasma, after two weeks of twice daily treatment, read-out: Cmax Steady-state): 4 ± 2 nM

O=P(O)(O)C(O)(Cc1cccnc1)P(=O)(O)O [risedronate]
absorbed fraction of the ingested dose [2]: about 1%

NCCCC(O)(P(=O)(O)O)P(=O)(O)O [alendronate]
absorbed fraction of the ingested dose [2]: about 1%

C[C@]12CC[C@H](O)CC1=CC[C@@H]1[C@@H]2CC[C@]2(C)C(=O)CC[C@@H]12 [DHEA, dehydroepiandrosterone]
absorption from the LINGUET tablet ([1]; plasma): readily absorbed | change of blood concentrations of DHEAS ([1]; single dose one-half LINGUET tablet (5 mg DHEA), over 5-10 hours): doubling | oral bioavailability [2]: over 90%

C[C@]12CC[C@@H]3c4ccc(O)cc4CC[C@H]3[C@@H]1CC[C@@H]2O [Oestradiol, 17-β-oestradiol]
concentrations in saliva compared with blood following use of the LINGUET tablet [3]: elevated many times higher than in blood

CC(=O)[C@H]1CC[C@H]2[C@@H]3CCC4=CC(=O)CC[C@]4(C)[C@H]3CC[C@]12C [Progesterone, progesterone]
Cmax ([1]; female, human, in vivo, Cmax Day 1): 22.9 ± 6.9 nM | Cmax ([1]; female, human, in vivo, Cmax Steady-state): 26.1 ± 7.6 nM | Tmax ([1]; female, human, in vivo, Tmax Day 1): 1.5 h | Tmax ([1]; female, human, in vivo, Tmax Steady-state): 1 h | plasma concentration at steady-state versus physiological level ([1]; in vivo): sustained at concentrations usually associated with physiological and biological activity in young normal women | time until concentrations decreased to below those generally associated with biological activity in the endometrium ([1]; in vivo): within five hours | concentrations in saliva compared with blood following use of the LINGUET tablet [3]: elevated many times higher than in blood

C[C@]12CC[C@H]3[C@@H](CCC4=CC(=O)CC[C@@]43C)[C@@H]1CC[C@@H]2O [Testosterone, testosterone]
Cmax ([1]; female, human, in vivo, plasma, after the first dose (half LINGUET tablet, buccal), read-out: Cmax Day 1): 31.6 ± 10.9 nM | Tmax ([1]; female, human, in vivo, plasma, after the first dose (half LINGUET tablet, buccal), read-out: Tmax Day 1): 0.6 h | concentration at 2 weeks ([1]; female, human, in vivo, plasma, after two weeks of twice daily half-tablet, six women, mean ± spread, read-out: Trough concentration at steady-state): 0.67 ± 0.28 nM | duration of markedly increased plasma concentrations [1, 4]: up to 4 hours | return to pre-treatment values [1, 4]: ≤ 8 h | time of peak concentrations (mean) [1, 4]: 0.6 h | absorption from the LINGUET tablet ([1]; plasma): readily absorbed
